Source: US20170348375A1, “DISLODGEMENT AND RELEASE OF HSC FROM THE BONE MARROW STEM CELL NICHE USING ALPHA9 INTEGRIN ANTAGONISTS” (COMMONWEALTH SCIENTIFIC AND INDUSTRIAL RESEARCH ORGANISATION, priority 2014, published 2017)
Read-outs that look alike come from different tables or passages of the source.

Columns and labels:
[1] = tested on: WBC, LSK and LSKSLAM in PB; test: Mobilization of HSC and progenitors into peripheral blood; type: in vivo, mouse; details: R-BC154, s.c., 15 and 30 mins post-injection
Method: For mobilization experiments, all mice received subcutaneous injections at 100 μl/10 gm body weight and PB was harvested by throat bleed using EDTA coated syringes.

[2] = tested on: bone marrow progenitor cells (LSK) and HSC (LSKSLAM); test: In vivo bone marrow binding assay; design: species or system mouse
Method: After 5 min, bone marrow cells were isolated as previously described in D. N. Haylock et al Stem Cells, 2007, 25, 1062-1069 and J. Grassinger, et al Cytokine, 2012, 58, 218-225. Briefly, one femur, tibia and iliac crest were excised and cleaned of muscle. After removing the epi- and metaphyseal regions, bones were flushed with PBS-2% FBS to obtain whole bone marrow, which were washed with PBS-2% FBS and then immunolabelled for flow cytometry. […] For staining progenitor cells (LSK; Lineage−Sca-1^+c-kit^+) and HSC (LSKSLAM; LSKCD150+CD48−), cells were labelled with a lineage cocktail (CD3, Ter-119, Gr-1, Mac-1, B220; all antibodies APC-Cy7 conjugated), anti-Sca-1-PB, anti-c-kit-AF647, anti-CD48-FITC and anti-CD150-BV650.
(§1) Cells were washed with cold PBS (2% F BS) and then immunolabelled as described in “Antibody Cocktails” prior to flow cytometric analysis.
Sorted cells were imaged using an Olympus BX51 microscope.

[3] = biological target: T1, human integrin α9β1 (Homo sapiens, UniProt P05556+Q13797); test: Saturation binding to α9β1 over-expressing LN18 cells (flow cytometry); details: for Kd: α9β1 LN18 cells, read-out: Kd (dissociation constant), α9β1
T1 construct: expressed in transfected cells; host or cells: human glioblastoma LN18 (ATCC CRL-2610), retrovirally transduced; α4 silenced with pSM2c-shITGA4
Method: (§2) Stable LN18 cells ((ATCC number: CRL-2610) over-expressing integrin α4β1 (LN18 α4β1) or α9β1 (LN18 α9β1)) were generated by retroviral transduction using the pMSCV-hITGA4-IRES-hITGB1 and pMSCV-hITGA9-IRES-hITGB1 vectors as previously described in J Grassinger, et al Blood, 2009, 114, 49-59 and were maintained in DMEM supplemented with 2 mM […] in 10% FBS. Transduced cells were selected by two rounds of FACS using 2.5 μg ml^−1 PE-Cy5-conjugated mouse-anti-human α4 antibody (BD Bioscience) or 20 μg ml^−1 of mouse-anti-human α9β1 antibody (Millipore) in PBS-2% FBS, followed by 0.5 μg ml^−1 of PE-conjugated goat-anti-mouse IgG (BD Bio-science). Silencing of α4 expression in LN18 and LN18 α9β1 cells was performed as described above using pSM2c-shITGA4 (Open Biosystems). α4-silenced LN18 cells (control cell line; LN18 SiA4) and LN18 α9β1 (LN18 α9β1SiA4) were negatively selected for α4 expression using FACS.
(§3) The cells were incubated at 37° C. for 60 min, washed once with TBS-2% FBS, dry pelleted and resuspended in the relevant binding buffer for flow cytometric analysis. Mean channel fluorescence was plotted against concentration and fitted to a one-site saturation ligand binding curve using GraphPad Prism 6. The dissociation constant, Kd was determined from the curves.

[4] = tested on: human cord blood mononuclear cells (MNC); test: In vitro R-BC154 binding to human cord blood mononuclear cells; type: cell-based
Method: Mononuclear cells (MNC) were isolated from cord blood as previously described in Nilsson, S. K. et al Blood 106, 1232-1239, (2005) and Grassinger, J. et al. Blood 114, 49-59, (2009). MNCs were incubated with a lineage antibody cocktail containing mouse anti-human CD3, CD11b, CD14, CD16, CD20, CD24, and CD235a (BD) and then treated with two rounds of Dynal sheep anti-mouse IgG beads (Invitrogen, Carlsbad, Calif.) at a ratio of 2 beads per cell for 5 min and then 10 min at 4° C. with constant rotation. Enriched MNC were stained with CD34-fluorescein isothiocyanate (FITC) CD34^+ cells purified by FACS.
as §1

[5] = biological target: T2, human integrin α4β1 (Homo sapiens, UniProt P05556+P13612); test: Saturation binding to α4β1 over-expressing LN18 cells (flow cytometry); details: for Kd: α4β1 LN18 cells, read-out: Kd (dissociation constant), α4β1
T2 construct: expressed in transfected cells; host or cells: human glioblastoma LN18 (ATCC CRL-2610), retrovirally transduced
Method: as §2, §3

[6] = biological target: T3, α4β1 integrin (Homo sapiens, UniProt P05556+P13612); test: On-rate and off-rate kinetics of R-BC154 binding to α4β1 LN18 cells; details: for kobs / kon / koff: α4β1 cells; for kobs: 50 nM, 37° C., fast phase; for kon: (kobs − koff)/50 nM
T3 construct: expressed in transfected cells; host or cells: human glioblastoma LN18 (ATCC CRL-2610), retrovirally transduced
Method: (§4) Mean channel fluorescence was plotted against time and the data was fitted to either a one-phase or two-phase exponential decay function using GraphPad Prism 6. The off-rate, koff was extrapolated from the curves.
(§5) Eppendorf vials containing α4β1 or α9β1 LN18 cells (0.5×10^6 cells) in 50 μl TBS-2% FBS containing either 1 mM CaCl2—MgCl2 or 1 mM MnCl2 were pre-activated in a heating block for 20 min at 37° C. […] The cells were washed once TBS-2% FBS (with relevant cations), pelleted by centrifugation and resuspended (200 μl) in the relevant binding buffer for flow cytometric analysis. Mean channel fluorescence was plotted against time and the data was fitted to either a one-phase or two phase association function using GraphPad Prism 6. The observed on-rate, kobs was extrapolated from the curves and kon was calculated using […]

[7] = tested on: control LN18 cells (LN18 SiA4); test: Saturation binding to control LN18 cells (no integrins); design: species or system human; details: 1 mM Ca2+/Mg2+
Method: as §2, §3

[8] = biological target: T4, α9β1 integrin (Homo sapiens, UniProt P05556+Q13797); test: On-rate and off-rate kinetics of R-BC154 binding to α9β1 LN18 cells; details: for kobs: 50 nM, 37° C., fast phase; for kon: (kobs − koff)/50 nM
T4 construct: expressed in transfected cells; host or cells: human glioblastoma LN18 (ATCC CRL-2610), retrovirally transduced; α4 silenced with pSM2c-shITGA4
Method: as §4, §5

T2 sequence (P13612 34-1032): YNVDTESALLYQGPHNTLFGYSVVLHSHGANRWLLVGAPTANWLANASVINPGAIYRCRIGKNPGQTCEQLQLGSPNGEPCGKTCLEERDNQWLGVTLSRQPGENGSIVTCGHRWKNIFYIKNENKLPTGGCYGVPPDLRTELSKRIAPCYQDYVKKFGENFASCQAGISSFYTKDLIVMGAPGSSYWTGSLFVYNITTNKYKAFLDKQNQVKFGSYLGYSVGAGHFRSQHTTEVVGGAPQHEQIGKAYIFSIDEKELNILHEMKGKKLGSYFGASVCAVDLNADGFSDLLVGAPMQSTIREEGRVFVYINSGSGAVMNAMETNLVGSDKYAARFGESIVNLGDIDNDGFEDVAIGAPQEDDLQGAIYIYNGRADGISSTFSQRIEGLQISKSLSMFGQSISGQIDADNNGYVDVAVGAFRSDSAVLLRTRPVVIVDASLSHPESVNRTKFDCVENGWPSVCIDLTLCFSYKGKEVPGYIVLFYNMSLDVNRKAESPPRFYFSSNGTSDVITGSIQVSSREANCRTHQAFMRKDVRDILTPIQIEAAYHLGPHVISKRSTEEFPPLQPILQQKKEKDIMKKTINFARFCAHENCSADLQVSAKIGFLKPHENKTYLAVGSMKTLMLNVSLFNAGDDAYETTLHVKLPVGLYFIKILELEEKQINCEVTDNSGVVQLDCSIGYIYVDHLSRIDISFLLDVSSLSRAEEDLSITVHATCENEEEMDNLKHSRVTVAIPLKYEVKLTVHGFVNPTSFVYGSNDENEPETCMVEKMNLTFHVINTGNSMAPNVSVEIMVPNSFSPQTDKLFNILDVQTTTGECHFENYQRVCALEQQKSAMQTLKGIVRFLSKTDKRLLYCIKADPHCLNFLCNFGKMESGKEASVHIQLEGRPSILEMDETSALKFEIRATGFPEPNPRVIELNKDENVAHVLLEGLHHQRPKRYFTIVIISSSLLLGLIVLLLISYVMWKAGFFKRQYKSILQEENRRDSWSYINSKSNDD
T2 sequence (P05556 21-798): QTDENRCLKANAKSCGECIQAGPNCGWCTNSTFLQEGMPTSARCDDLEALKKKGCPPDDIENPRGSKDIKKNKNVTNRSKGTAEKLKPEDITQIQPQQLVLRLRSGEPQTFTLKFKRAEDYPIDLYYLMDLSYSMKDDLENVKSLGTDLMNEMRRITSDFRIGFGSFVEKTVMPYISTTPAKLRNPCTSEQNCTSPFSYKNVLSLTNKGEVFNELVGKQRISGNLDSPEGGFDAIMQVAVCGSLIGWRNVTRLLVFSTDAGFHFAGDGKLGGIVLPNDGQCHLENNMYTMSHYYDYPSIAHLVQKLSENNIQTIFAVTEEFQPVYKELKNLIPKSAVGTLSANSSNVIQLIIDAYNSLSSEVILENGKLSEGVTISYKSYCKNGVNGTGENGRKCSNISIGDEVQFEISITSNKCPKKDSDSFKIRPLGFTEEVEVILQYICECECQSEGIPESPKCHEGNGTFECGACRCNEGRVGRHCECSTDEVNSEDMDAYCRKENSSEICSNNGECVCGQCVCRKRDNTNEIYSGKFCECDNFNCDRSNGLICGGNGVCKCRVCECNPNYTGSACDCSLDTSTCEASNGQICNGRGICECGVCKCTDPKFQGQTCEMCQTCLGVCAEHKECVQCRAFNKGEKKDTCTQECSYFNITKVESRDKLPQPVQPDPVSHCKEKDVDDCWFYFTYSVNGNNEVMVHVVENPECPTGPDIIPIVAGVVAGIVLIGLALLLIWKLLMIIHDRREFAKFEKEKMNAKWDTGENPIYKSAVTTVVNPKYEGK
T3 sequence (P13612 34-1032): as the sequence (P13612 34-1032) above
T3 sequence (P05556 21-798): as the sequence (P05556 21-798) above
T1 sequence (Q13797 30-1035): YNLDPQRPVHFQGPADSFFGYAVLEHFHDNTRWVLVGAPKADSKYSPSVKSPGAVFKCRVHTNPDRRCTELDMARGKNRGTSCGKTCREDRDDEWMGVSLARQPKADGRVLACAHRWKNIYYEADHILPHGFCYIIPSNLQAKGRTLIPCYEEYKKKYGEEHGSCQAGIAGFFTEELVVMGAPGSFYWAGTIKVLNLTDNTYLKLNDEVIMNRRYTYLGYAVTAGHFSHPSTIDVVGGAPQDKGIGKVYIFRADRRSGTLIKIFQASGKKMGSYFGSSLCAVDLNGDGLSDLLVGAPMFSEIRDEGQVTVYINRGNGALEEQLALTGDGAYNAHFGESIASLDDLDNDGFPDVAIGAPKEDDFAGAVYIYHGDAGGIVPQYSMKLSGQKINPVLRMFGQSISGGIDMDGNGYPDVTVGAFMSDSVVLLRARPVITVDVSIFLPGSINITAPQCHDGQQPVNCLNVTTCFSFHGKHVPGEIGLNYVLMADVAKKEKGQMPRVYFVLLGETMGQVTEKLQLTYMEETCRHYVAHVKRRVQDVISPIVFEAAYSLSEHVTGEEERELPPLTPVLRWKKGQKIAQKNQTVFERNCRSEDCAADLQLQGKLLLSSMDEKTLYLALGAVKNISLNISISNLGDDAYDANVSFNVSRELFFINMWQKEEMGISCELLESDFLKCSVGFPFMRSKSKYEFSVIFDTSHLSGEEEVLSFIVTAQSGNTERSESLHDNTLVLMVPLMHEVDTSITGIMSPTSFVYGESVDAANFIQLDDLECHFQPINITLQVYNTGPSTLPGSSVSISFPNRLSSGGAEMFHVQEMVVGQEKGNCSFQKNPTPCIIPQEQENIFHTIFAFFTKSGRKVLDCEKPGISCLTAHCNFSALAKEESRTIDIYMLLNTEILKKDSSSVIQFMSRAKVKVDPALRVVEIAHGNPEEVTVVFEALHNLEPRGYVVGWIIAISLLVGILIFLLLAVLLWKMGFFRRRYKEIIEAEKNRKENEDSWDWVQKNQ
T1 sequence (P05556 21-798): as the sequence (P05556 21-798) above
T4 sequence (Q13797 30-1035): as the sequence (Q13797 30-1035) above
T4 sequence (P05556 21-798): as the sequence (P05556 21-798) above

SMILES: CCN(CC)c1ccc2c(-c3ccc(S(=O)(=O)NCc4cn(C5CC(C(=O)NC(Cc6ccc(OC(=O)N7CCCC7)cc6)C(=O)O)N(S(=O)(=O)c6ccccc6)C5)nn4)cc3S(=O)(=O)[O-])c3ccc(=[N+](CC)CC)cc-3oc2c1 (stereo not drawn) [R-BC154]
- number of WBC, LSK or LSKSLAM in PB [1]: not found to give significant increases
- in vivo labelling of BM progenitor cells (LSK) and HSC (LSKSLAM) ([2]; 10 mg kg−1 intravenously, C57 mice, vs un-injected mice): Increased cell-associated fluorescence
- binding to BM LSK after s.c. treatment ([2]; 30 mins post-s.c.): persistent binding
- in vivo binding on α4−/−/α9−/− LSK cells ([2]; conditional KO mice injected with R-BC154): No binding
- proportion of R-BC154hi LSK and LSKSLAM cells, endosteal vs central BM ([2]; i.v. administration, C57Bl/6 mice): greater proportion of R-BC154^hi cells
- clearance following i.v. administration ([2]; i.v., mice): < 5 min
- binding on LSK in the PB compared to BM ([2]; s.c. administration): Minimal binding
- Kd ([3]; 1 mM Ca2+/Mg2+): 12.7 nM
- Kd ([3]; 1 mM Mn2+): 14.4 nM
- greater affinity for α9β1 than α4β1 ([3]; Ca2+/Mg2+ conditions): 3 fold
- reduction in binding affinity to α9β1 compared to compound 22 ([3]; Ca2+/Mg2+ conditions): 1.5 fold
- integrin binding in the absence of cations ([3]; TBS buffer only, LN18 α9β1 cells (FIG. 4)): no integrin binding was observed
- binding to human cord blood MNC ([4]; 1 mM Ca2+/Mg2+ vs no cations): Divalent cation and dose dependent binding
- binding to CD34+CD38− cells versus other MNC populations ([4]; activating conditions): greater binding was observed on stem cell enriched CD34^+CD38^− cells compared to lineage-committed CD34^− cells
- Kd ([5]; 1 mM Ca2+/Mg2+): 38 nM
- increase in binding affinity towards α4β1 under Mn2+ activation compared to Ca2+/Mg2+ ([5]; 1 mM Mn2+ vs Ca2+/Mg2+): 3.1 fold
- Kd ([5]; 1 mM Mn2+): 12.4 nM
- reduction in binding affinity to α4β1 compared to compound 22 ([5]; Ca2+/Mg2+ conditions): 1.9 fold
- R-BC154 still bound after 60 min ([6]; α4β1, Mn2+, dissociation experiment): greater than 60%
- kobs ([6]; 1 mM Ca2+/Mg2+): 5.426 min⁻¹
- kon ([6]; 1 mM Ca2+/Mg2+): 1.57e+06 M⁻¹ s⁻¹
- koff ([6]; 1 mM Ca2+/Mg2+, fast phase of two-phase dissociation curve): 0.012 s⁻¹
- koff ([6]; 1 mM Mn2+): 0.000233 s⁻¹
- kobs ([6]; 1 mM Mn2+): 1.891 min⁻¹
- kon ([6]; 1 mM Mn2+): 633000 M⁻¹ s⁻¹
- binding to control cell line lacking integrin expression [7]: Virtually no binding
- off-rates for α9β1 compared to α4β1 ([8]; Example 2, FIG. 5c): significantly reduced off-rates
- R-BC154 still bound after 60 min ([8]; α9β1, Mn2+, dissociation experiment): greater than 60%
- koff ([8]; α9β1 cells, 1 mM Ca2+/Mg2+): 0.0009 s⁻¹
- kobs ([8]; α9β1 cells, 1 mM Ca2+/Mg2+): 3.117 min⁻¹
- kon ([8]; α9β1 cells, 1 mM Ca2+/Mg2+): 1.02e+06 M⁻¹ s⁻¹
- kobs ([8]; α9β1 cells, 1 mM Mn2+): 2.035 min⁻¹
- kon ([8]; α9β1 cells, 1 mM Mn2+): ~670000 M⁻¹ s⁻¹
